Our source for the IC50 values is ChEMBL document CHEMBL1138665, “Probing the activity differences of simple and complex brominated aryl compounds against 15-soybean, 15-human, and 12-human lipoxygenase” (J Med Chem, 2004).

Assay [1] addresses T1, Polyunsaturated fatty acid lipoxygenase ALOX15 (Homo sapiens, UniProt P16050).
T1 sequence (P16050 whole entry): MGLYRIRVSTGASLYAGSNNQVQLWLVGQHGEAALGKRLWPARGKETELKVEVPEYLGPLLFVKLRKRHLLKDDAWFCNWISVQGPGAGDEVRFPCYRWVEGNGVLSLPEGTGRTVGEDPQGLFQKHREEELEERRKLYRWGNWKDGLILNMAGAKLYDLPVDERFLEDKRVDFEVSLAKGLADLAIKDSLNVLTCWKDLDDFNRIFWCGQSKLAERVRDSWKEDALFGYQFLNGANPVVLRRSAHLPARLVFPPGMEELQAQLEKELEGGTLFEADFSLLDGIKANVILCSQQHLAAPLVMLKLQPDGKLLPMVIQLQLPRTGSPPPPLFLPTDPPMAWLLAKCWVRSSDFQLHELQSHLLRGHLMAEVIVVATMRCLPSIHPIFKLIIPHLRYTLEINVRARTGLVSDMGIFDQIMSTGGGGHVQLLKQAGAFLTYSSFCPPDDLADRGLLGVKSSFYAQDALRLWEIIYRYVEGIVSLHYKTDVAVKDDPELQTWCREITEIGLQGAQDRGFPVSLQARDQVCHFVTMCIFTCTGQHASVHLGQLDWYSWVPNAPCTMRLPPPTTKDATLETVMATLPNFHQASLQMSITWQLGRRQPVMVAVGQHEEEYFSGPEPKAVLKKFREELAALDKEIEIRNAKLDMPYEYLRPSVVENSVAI
As to the kind of experiment: Inhibitory effect on human reticulocyte 15-lipoxygenase.

A short description of assay [2]: Inhibitory effect on soybean 15-lipoxygenase. The arrangement: species or system Glycine max.
Assay [3] has as its target T2, Polyunsaturated fatty acid lipoxygenase ALOX12 (Homo sapiens, UniProt P18054).
T2 sequence (P18054 whole entry): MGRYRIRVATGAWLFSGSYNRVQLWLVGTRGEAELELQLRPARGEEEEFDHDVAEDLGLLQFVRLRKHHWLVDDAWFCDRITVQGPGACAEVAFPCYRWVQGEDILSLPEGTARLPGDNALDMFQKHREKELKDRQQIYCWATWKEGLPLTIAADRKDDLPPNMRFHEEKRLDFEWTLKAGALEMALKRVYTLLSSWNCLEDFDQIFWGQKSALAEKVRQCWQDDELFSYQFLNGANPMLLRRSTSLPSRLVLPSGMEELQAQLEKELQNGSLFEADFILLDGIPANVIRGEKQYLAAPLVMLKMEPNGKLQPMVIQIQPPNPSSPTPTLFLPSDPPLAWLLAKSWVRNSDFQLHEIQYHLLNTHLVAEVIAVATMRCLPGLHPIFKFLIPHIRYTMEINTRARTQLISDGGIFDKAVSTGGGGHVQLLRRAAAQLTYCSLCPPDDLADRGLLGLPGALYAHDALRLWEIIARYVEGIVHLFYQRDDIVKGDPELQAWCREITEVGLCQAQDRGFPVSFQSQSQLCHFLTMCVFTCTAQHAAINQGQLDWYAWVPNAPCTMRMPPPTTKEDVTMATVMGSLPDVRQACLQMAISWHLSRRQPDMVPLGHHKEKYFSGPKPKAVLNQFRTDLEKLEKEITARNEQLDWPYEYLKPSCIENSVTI
As to the kind of experiment: Inhibitory effect on human platelet 12-lipoxygenase.

Take `Oc1ccc(Br)cc1`: the IC50 was 55 µM in assay [1], 48 µM in assay [2] and above 100 µM in assay [3].

As to `COc1cc(Br)cc(Br)c1Oc1cc(Br)cc(Br)c1O`, the concentration for half-maximal inhibition (IC50) in assay [1] was 10 µM; in assay [2] it was above 100 µM; in assay [3] it was 12 µM.

For `O=C(N/C=C/c1ccc(O)c(Br)c1)/C(Cc1cc(Br)c(O)c(Oc2c(Br)cc(C/C(=N\O)C(=O)NCCc3ccc(O)c(Br)c3)cc2Br)c1)=N/O`, the half-maximal inhibitory concentration (IC50) in assay [1] came to 2 µM; in assay [2] it was 59 µM; in assay [3], 0.4 µM.

Regarding `Oc1ccccc1Br`, the IC50 in assay [1], in assay [2] and in assay [3] was above 100 µM throughout.

Molecule `CC(Cc1ccc(O)c(O)c1)[C@H](C)Cc1ccc(O)c(O)c1` (stereo not given in full) displayed an IC50 in assay [2] of 0.18 µM.

Turning to `Oc1ccc(Br)cc1Oc1c(O)ccc(Br)c1Br`, the IC50 in assay [2] is above 100 µM; in assay [3], 47 µM.

Consider `Oc1c(Br)cc(Br)cc1Oc1c(Br)cc(Br)c(Br)c1O`, for which the figures for the half-inhibitory concentration (IC50) in assay [1], in assay [2] and in assay [3] were 2.2 µM, above 100 µM and 6.2 µM, respectively.

For `Oc1c(Br)cccc1Br`, the concentration for half-maximal inhibition (IC50) in assay [1], in assay [2] and in assay [3] was above 100 µM throughout.

On to `O=C1N/C=C/c2ccc(c(Br)c2)Oc2cc(cc(Br)c2O)CCNC(=O)/C(=N/O)Cc2ccc(c(Br)c2)Oc2cc(cc(Br)c2O)C/C1=N\O` [BASTADIN 7], for which the half-inhibitory concentration (IC50) in assay [1] is 4 µM; in assay [2], 27 µM; in assay [3], 2.3 µM.

In the case of `Oc1c(Br)c(Br)c(Br)c(Br)c1Oc1ccc(Br)cc1Br`, the IC50 in assay [1] was 1.8 µM; in assay [2] it was 7 µM; in assay [3], 0.7 µM.

As to `Oc1cccc(Br)c1`, the IC50 in assay [1], in assay [2] and in assay [3] was above 100 µM each time.

With `CC(C)(c1ccc(O)c(Br)c1)c1cc(Br)c(O)c(Br)c1`, the IC50 was 5 µM in assay [1], above 100 µM in assay [2] and 7 µM in assay [3].

In the case of `OCc1ccc(Br)cc1`, the IC50 in assay [1], in assay [2] and in assay [3] was above 100 µM throughout.

For `Oc1c(Br)cc(Br)cc1Oc1c(O)c(Br)c(Br)c(Br)c1Br`, the IC50 in assay [1] is 0.79 µM; in assay [2], above 100 µM; in assay [3] it was 0.41 µM.

`Oc1ccc(Br)cc1Br`: the IC50 in assay [2] and in assay [3] was above 100 µM in each case.

In the case of `Oc1cc(Br)c(Br)c2c1Oc1cc(Br)cc(Br)c1O2` [SPONGIADIOXIN A], the values for the IC50 in assay [2] and in assay [3] were above 100 µM and 50 µM, respectively.

`CCOc1ccc(Br)cc1`: the half-maximal inhibitory concentration (IC50) in assay [1], in assay [2] and in assay [3] was above 100 µM throughout.

Regarding `CC(C)(c1cc(Br)c(O)c(Br)c1)c1cc(Br)c(O)c(Br)c1`, the 50% inhibitory concentration (IC50) in assay [1] was 4 µM; in assay [2], above 100 µM; in assay [3], 10 µM.

As for `Oc1cc(Br)cc2c1Oc1cc(Br)cc(Br)c1O2` [SPONGIADIOXIN C], the half-inhibitory concentration (IC50) in assay [1] is 0.8 µM; in assay [2], above 100 µM; in assay [3], 30 µM.

Take `Oc1c(Br)cc(Br)c(Br)c1Oc1ccc(Br)cc1Br`: the IC50 in assay [1] amounted to 5 µM; in assay [2], 9 µM; in assay [3], 6 µM.

What is called IC50 is the concentration that gives 50% inhibition. Lower therefore signals greater potency.
